According to patent US20210078988A1, “MODULATORS OF INDOLEAMINE 2,3-DIOXYGENASE” (GLAXOSMITHKLINE INTELLECTUAL PROPERTY DEVELOPMENT LIMITED, priority 2017, published 2021):

These compounds were tested against T1, indoleamine 2, 3-dioxygenase (IDO1) (Homo sapiens, UniProt P14902) (assay: PBMC IDO1 assay (kynurenine detection via mass spectrometry)). Conditions: human PBMC stimulated with IFN-γ and LPS, 2 days, kynurenine by mass spectrometry; read-out: IDO1 PBMC pIC50 (converted).
T1 construct: human peripheral blood mononuclear cells (PBMC) (PB003F; host or cells: human PBMC stimulated with IFN-gamma and LPS
Assay type: cell-based
Procedure, shortened: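 Kynurenine output, read by RapidFire mass spectrometry as a ratio to internal standard, reflected IDO1 activity in human PBMCs induced with 100 ng/ml IFN-γ plus 50 ng/ml LPS and dosed with compound (11 points, 3-fold) over 2 days. Cytotoxicity was tracked by CellTiter-Glo; XC50 values came from Hill-slope fits.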

T1 sequence (P14902 whole entry): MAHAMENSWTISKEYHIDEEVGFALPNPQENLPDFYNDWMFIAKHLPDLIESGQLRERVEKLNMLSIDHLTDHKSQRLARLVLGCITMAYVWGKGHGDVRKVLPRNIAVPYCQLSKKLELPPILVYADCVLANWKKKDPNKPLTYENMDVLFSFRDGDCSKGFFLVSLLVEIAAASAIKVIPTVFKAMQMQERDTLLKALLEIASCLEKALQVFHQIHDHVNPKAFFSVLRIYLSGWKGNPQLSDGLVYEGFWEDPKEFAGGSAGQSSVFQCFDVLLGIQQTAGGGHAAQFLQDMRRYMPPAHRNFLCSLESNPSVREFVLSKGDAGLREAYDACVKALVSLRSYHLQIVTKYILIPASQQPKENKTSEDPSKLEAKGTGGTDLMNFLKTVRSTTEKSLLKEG

Going from `CC(C)OC(=O)N1CCC(C[C@@H](NC(=O)c2ccc(Cl)s2)C2CC2)CC1` [Example 188, (R)-isopropyl 4-(2-(5-chlorothiophene-2-carboxamido)-2-cyclopropylethyl)piperidine-1-carboxylate] to `COC(=O)N1CCC(C[C@@H](NC(=O)c2ccc(Cl)s2)C2CC2)CC1` [Example 206, (R)-methyl 4-(2-(5-chlorothiophene-2-carboxamido)-2-cyclopropylethyl)piperidine-1-carboxylate], the IC50 rises from 158 nM to 316 nM (2-fold).

Going from `CC(C)(C)OC(=O)N1CCC(CC(NC(=O)c2ccc(C#N)nc2)c2ccccc2)CC1` (centres unmarked) [Example 189, tert-butyl 4-(2-(6-cyanonicotinamido)-2-phenylethyl)piperidine-1-carboxylate] to `Cc1ccc(C(=O)NC(CC2CCN(C(=O)OC(C)(C)C)CC2)c2ccccc2)cn1` (centres unmarked) [Example 217, tert-butyl 4-(2-(6-methylnicotinamido)-2-phenylethyl)piperidine-1-carboxylate], the IC50 rises from 200 nM to 501 nM (2.5-fold).

First: CC(C)(C)OC(=O)N1CCC(CC(NC(=O)C2CCCCC2)c2ccccc2)CC1 (centres unmarked) [Example 190, tert-butyl 4-(2-(cyclohexanecarboxamido)-2-phenylethyl)piperidine-1-carboxylate]
Second: CC(C)(C)OC(=O)N1CCC(CC(NC(=O)C2CCCCCC2)c2ccccc2)CC1 (centres unmarked) [Example 209, tert-butyl 4-(2-(cycloheptanecarboxamido)-2-phenylethyl)piperidine-1-carboxylate]
The IC50 of the first is 2-fold lower: 200 nM for the first, 398 nM for the second.

Compared with `Cc1ncc(C(=O)NC(CC2CCN(C(=O)OC(C)(C)C)CC2)c2ccccc2)s1` (centres unmarked) [Example 191, tert-butyl 4-(2-(2-methylthiazole-5-carboxamido)-2-phenylethyl)piperidine-1-carboxylate], `Cc1ccc(C(=O)NC(CC2CCN(C(=O)OC(C)(C)C)CC2)c2ccccc2)o1` (centres unmarked) [Example 204, tert-butyl 4-(2-(5-methylfuran-2-carboxamido)-2-phenylethyl)piperidine-1-carboxylate] is 1.6-fold higher in IC50: 200 nM for the first, 316 nM for the second.

`CCCOc1ccc(C(=O)NC(CC2CCN(C(=O)OC(C)(C)C)CC2)c2ccccc2)cc1` (centres unmarked) [Example 192, tert-butyl 4-(2-phenyl-2-(4-propoxybenzamido)ethyl)piperidine-1-carboxylate] and `CC(C)(C)OC(=O)N1CCC(CC(NC(=O)c2ccc(O)cc2)c2ccccc2)CC1` (centres unmarked) [Example 195, tert-butyl 4-(2-(4-hydroxybenzamido)-2-phenylethyl)piperidine-1-carboxylate] are within 1.5-fold of each other in IC50: 200 nM for the first, 251 nM for the second.

`O=C(NC(CC1CCN(S(=O)(=O)C2CCCC2)CC1)c1ccccc1)c1ccc(Cl)cc1` (centres unmarked) [Example 193, 4-chloro-N-(2-(1-(cyclopentylsulfonyl)piperidin-4-yl)-1-phenylethyl)benzamide] and `O=C(NC(CC1CCN(S(=O)(=O)N2CCCCC2)CC1)c1ccccc1)c1ccc(Cl)cc1` (centres unmarked) [Example 197, 4-chloro-N-(1-phenyl-2-(1-(piperidin-1-ylsulfonyl)piperidin-4-yl)ethyl)benzamide] are within 1.5-fold of each other in IC50: 200 nM for the first, 251 nM for the second.

First: CC(C)(C)OC(=O)N1CCC(CC(NC(=O)c2ccccc2O)c2ccccc2)CC1 (centres unmarked) [Example 194, tert-butyl 4-(2-(2-hydroxybenzamido)-2-phenylethyl)piperidine-1-carboxylate]
Second: CC(C)(C)OC(=O)N1CCC(CC(NC(=O)c2ccccc2F)c2ccccc2)CC1 (centres unmarked) [Example 219, tert-butyl 4-(2-(2-fluorobenzamido)-2-phenylethyl)piperidine-1-carboxylate]
The IC50 of the first is 2-fold lower: 251 nM for the first, 501 nM for the second.

`CC(C)(C)OC(=O)N1CCC(CC(NC(=O)c2ccc(O)c(F)c2)c2ccccc2)CC1` (centres unmarked) [Example 196, tert-butyl 4-(2-(3-fluoro-4-hydroxybenzamido)-2-phenylethyl)piperidine-1-carboxylate] and `CC(C)(C)OC(=O)N1CCC(CC(NC(=O)c2ccc(F)c(Cl)c2)c2ccccc2)CC1` (centres unmarked) [Example 203, tert-butyl 4-(2-(3-chloro-4-fluorobenzamido)-2-phenylethyl)piperidine-1-carboxylate] are within 1.5-fold of each other in IC50: 251 nM for the first, 316 nM for the second.

Compared with `CC(C)(C)OC(=O)N1CCC(CC(NC(=O)c2ccc(F)cc2)c2nc(C3CCCC3)no2)CC1` (centres unmarked) [Example 198, tert-butyl 4-(2-(3-cyclopentyl-1,2,4-oxadiazol-5-yl)-2-(4-fluorobenzamido)ethyl)piperidine-1-carboxylate], `CC(C)(C)OC(=O)N1CCC(CC(NC(=O)c2ccc(F)cc2)c2nnc(C3CC3)o2)CC1` (centres unmarked) [Example 221, tert-butyl 4-(2-(5-cyclopropyl-1,3,4-oxadiazol-2-yl)-2-(4-fluorobenzamido)ethyl)piperidine-1-carboxylate] is 2-fold higher in IC50: 251 nM for the first, 501 nM for the second.

Compared with `CC(C)(C)OC(=O)N1CCC(CC(NC(=O)c2cccc(Cl)c2)c2ccccc2)CC1` (centres unmarked) [Example 199, tert-butyl 4-(2-(3-chlorobenzamido)-2-phenylethyl)piperidine-1-carboxylate], `COc1cccc(C(=O)NC(CC2CCN(C(=O)OC(C)(C)C)CC2)c2ccccc2)c1` (centres unmarked) [Example 216, tert-butyl 4-(2-(3-methoxybenzamido)-2-phenylethyl)piperidine-1-carboxylate] is 1.6-fold higher in IC50: 316 nM for the first, 501 nM for the second.

`CC(C)(C)OC(=O)N1CCC(CC(NC(=O)Nc2ccc(F)cc2)c2ccccc2)CC1` (centres unmarked) [Example 200, tert-butyl 4-(2-(3-(4-fluorophenyl)ureido)-2-phenylethyl)piperidine-1-carboxylate] and `CC(C)(C)OC(=O)N1CCC(CC(NC(=O)c2cc(F)ccc2F)c2ccccc2)CC1` (centres unmarked) [Example 211, tert-butyl 4-(2-(2,5-difluorobenzamido)-2-phenylethyl)piperidine-1-carboxylate] are within 1.5-fold of each other in IC50: 316 nM for the first, 398 nM for the second.

`CC(C)(C)OC(=O)N1CCC(CC(NC(=O)C23CCC(CC2)CC3)c2ccccc2)CC1` (centres unmarked) [Example 201, tert-butyl 4-(2-(bicyclo[2.2.2]octane-1-carboxamido)-2-phenylethyl)piperidine-1-carboxylate] and `CC(C)(C)CC(=O)NC(CC1CCN(C(=O)OC(C)(C)C)CC1)c1ccccc1` (centres unmarked) [Example 210, tert-butyl 4-(2-(3,3-dimethylbutanamido)-2-phenylethyl)piperidine-1-carboxylate] are within 1.5-fold of each other in IC50: 316 nM for the first, 398 nM for the second.

`COCCOc1ccc(C(CC2CCN(C(=O)OC(C)(C)C)CC2)NC(=O)c2ccc(F)cc2)cn1` (centres unmarked) [Example 202, tert-butyl 4-(2-(4-fluorobenzamido)-2-(6-(2-methoxyethoxy)pyridin-3-yl)ethyl)piperidine-1-carboxylate] and `CC(C)(C)OC(=O)N1CCC(CC(NC(=O)c2ccc(F)cc2)c2cccnc2)CC1` (centres unmarked) [Example 207, tert-butyl 4-(2-(4-fluorobenzamido)-2-(pyridin-3-yl)ethyl)piperidine-1-carboxylate] are within 1.5-fold of each other in IC50: 316 nM for the first, 398 nM for the second.

`CC(C)(C)OC(=O)N1CCC(CC(NC(=O)c2ccc(Cl)c(Cl)c2)c2ccccc2)CC1` (centres unmarked) [Example 205, tert-butyl 4-(2-(3,4-dichlorobenzamido)-2-phenylethyl)piperidine-1-carboxylate] and `Cc1cc(C(=O)NC(CC2CCN(C(=O)OC(C)(C)C)CC2)c2ccccc2)ccc1F` (centres unmarked) [Example 213, tert-butyl 4-(2-(4-fluoro-3-methylbenzamido)-2-phenylethyl)piperidine-1-carboxylate] are within 1.5-fold of each other in IC50: 316 nM for the first, 398 nM for the second.

`CC(C)(C)OC(=O)N1CCC(CC(NC(=O)c2ccc(F)cc2)c2ccncc2)CC1` (centres unmarked) [Example 208, tert-butyl 4-(2-(4-fluorobenzamido)-2-(pyridin-4-yl)ethyl)piperidine-1-carboxylate] and `CC(C)c1ccc(C(=O)NC(CC2CCN(C(=O)OC(C)(C)C)CC2)c2ccccc2)cc1` (centres unmarked) [Example 212, tert-butyl 4-(2-(4-isopropylbenzamido)-2-phenylethyl)piperidine-1-carboxylate] are the same in IC50: 398 nM for the first, 398 nM for the second.

`CC(C)(C)OC(=O)N1CCC(C[C@@H](NC(=O)c2ccc(Cl)s2)C2CC2)CC1` [Example 214, (R)-tert-butyl 4-(2-(5-chlorothiophene-2-carboxamido)-2-cyclopropylethyl)piperidine-1-carboxylate] and `CC(C)(C)OC(=O)N1CCC(CC(NC(=O)c2ccc(Cl)s2)c2n[nH]c(=O)o2)CC1` (centres unmarked) [Example 224, tert-butyl 4-(2-(5-chlorothiophene-2-carboxamido)-2-(5-oxo-4,5-dihydro-1,3,4-oxadiazol-2-yl)ethyl)piperidine-1-carboxylate] are within 1.5-fold of each other in IC50: 398 nM for the first, 501 nM for the second.

`O=C(NC(CC1CCN(S(=O)(=O)c2ccccc2)CC1)c1ccccc1)c1ccc(Cl)cc1` (centres unmarked) [Example 215, 4-chloro-N-(1-phenyl-2-(1-(phenylsulfonyl)piperidin-4-yl)ethyl)benzamide] and `CC(=O)N1CCC(CC(NC(=O)c2ccc(Cl)cc2)c2ccccc2)CC1` (centres unmarked) [Example 222, N-(2-(1-acetylpiperidin-4-yl)-1-phenylethyl)-4-chlorobenzamide] are within 1.5-fold of each other in IC50: 398 nM for the first, 501 nM for the second.

`Cc1ccc(C(=O)NC(CC2CCN(C(=O)OC(C)(C)C)CC2)c2ccccc2)c(F)c1` (centres unmarked) [Example 218, tert-butyl 4-(2-(2-fluoro-4-methylbenzamido)-2-phenylethyl)piperidine-1-carboxylate] and `CC(C)(C)OC(=O)N1CCC(CC(NC(=O)c2ccc[nH]2)c2ccccc2)CC1` (centres unmarked) [Example 220, tert-butyl 4-(2-phenyl-2-(1H-pyrrole-2-carboxamido)ethyl)piperidine-1-carboxylate] are the same in IC50: 501 nM for the first, 501 nM for the second.

`CC(C)c1nnc(C(CC2CCN(C(=O)OC(C)(C)C)CC2)NC(=O)c2ccc(F)cc2)o1` (centres unmarked) [Example 223, tert-butyl 4-(2-(4-fluorobenzamido)-2-(5-isopropyl-1,3,4-oxadiazol-2-yl)ethyl)piperidine-1-carboxylate] and `CC(C)CNCC(CC1CCN(C(=O)OC(C)(C)C)CC1)NC(=O)c1ccc(F)cc1` (centres unmarked) [Example 225, tert-butyl 4-(2-(4-fluorobenzamido)-3-(isobutylamino)propyl)piperidine-1-carboxylate] are the same in IC50: 501 nM for the first, 501 nM for the second.
